Assay results: ChEMBL document CHEMBL5385846, “Discovery and development of palmatine analogues as anti-NASH agents by activating farnesoid X receptor (FXR)” (Eur J Med Chem, 2023)
Active and inactive are the calls of the source. The calls are words filed in the database; no cut-off is given here.

How the values were obtained:
[1] = test system: Mus musculus; test: Anti-inflammatory activity in CDAHFD induced C57BL/6N mouse liver injury model assessed as downregulation of MCP1 mRNA expression in liver at 200 mg/kg,po qd administration for 4 weeks by qRT-PCR analysis; type: functional, organism-based
[2] = test system: Rattus norvegicus; test: Antifibrotic activity in bile duct ligation induced Sprague-Dawley rat liver fibrosis model assessed as downregulation of NTCP protein expression at 200 mg/kg,po qd administration for 14 days by Western blotting analysis; type: functional, organism-based; details: time 14.0 day
[3] = target: Collagen alpha-1(I) chain (Homo sapiens) (UniProt P02452); test: Inhibition of COL1A1 (unknown origin) expressed in human LX2 cells at 20 micromol/L incubated for 48 hrs by Bright-Glo luciferase assay relative to control; type: cell-based; details: dose 20.0 µmol/L
Chain of Collagen alpha-1(I) chain (Homo sapiens) (P02452 whole entry): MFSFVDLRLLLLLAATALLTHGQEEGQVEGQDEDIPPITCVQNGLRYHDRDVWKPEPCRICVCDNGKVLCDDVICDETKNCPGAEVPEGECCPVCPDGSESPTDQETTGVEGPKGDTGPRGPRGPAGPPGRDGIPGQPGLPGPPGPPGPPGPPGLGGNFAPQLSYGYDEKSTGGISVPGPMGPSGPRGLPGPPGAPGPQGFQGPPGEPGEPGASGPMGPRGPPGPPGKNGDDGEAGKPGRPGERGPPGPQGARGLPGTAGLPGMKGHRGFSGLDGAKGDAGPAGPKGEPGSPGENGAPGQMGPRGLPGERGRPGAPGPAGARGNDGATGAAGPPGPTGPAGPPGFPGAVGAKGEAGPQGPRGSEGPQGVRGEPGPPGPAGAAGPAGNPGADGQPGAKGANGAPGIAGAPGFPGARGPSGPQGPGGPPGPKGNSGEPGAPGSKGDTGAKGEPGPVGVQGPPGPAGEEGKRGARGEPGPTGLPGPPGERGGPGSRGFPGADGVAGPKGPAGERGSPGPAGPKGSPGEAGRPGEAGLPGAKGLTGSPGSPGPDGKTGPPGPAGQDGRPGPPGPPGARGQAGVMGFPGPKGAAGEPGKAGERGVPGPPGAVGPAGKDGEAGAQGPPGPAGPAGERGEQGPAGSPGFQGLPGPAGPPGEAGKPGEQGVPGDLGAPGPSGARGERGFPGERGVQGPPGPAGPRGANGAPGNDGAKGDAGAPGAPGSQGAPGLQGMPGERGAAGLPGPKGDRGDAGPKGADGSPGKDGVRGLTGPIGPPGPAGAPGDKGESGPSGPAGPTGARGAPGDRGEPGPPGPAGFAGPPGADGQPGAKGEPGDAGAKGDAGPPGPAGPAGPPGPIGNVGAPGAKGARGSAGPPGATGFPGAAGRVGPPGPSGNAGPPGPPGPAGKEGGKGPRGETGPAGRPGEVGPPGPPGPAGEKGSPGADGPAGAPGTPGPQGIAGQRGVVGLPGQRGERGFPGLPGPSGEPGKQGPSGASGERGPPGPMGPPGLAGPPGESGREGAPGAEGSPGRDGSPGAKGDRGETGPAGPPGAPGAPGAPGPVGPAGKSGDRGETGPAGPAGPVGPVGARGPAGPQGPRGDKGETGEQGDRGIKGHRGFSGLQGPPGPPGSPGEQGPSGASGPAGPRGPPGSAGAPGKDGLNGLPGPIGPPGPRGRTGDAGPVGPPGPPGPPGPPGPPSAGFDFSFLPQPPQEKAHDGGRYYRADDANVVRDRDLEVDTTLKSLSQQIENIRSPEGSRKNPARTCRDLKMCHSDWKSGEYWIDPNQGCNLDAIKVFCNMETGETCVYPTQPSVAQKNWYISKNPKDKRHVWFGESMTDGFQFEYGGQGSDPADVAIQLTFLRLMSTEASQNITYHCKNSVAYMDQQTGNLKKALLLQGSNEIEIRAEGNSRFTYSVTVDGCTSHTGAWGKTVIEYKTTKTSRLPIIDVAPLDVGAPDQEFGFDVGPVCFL

[4] = Half life in CD-1 mouse liver microsomes at 1 micromol/L measured upto 60 mins in presence of NADPH by LC-MS/MS analysis; type: ADME, Microsome; details: 1 h, 1 µM, dose 1 µmol/L
[5] = test system: Mus musculus; test: Hepatoprotective activity in CDAHFD induced C57BL/6N mouse liver injury model assessed as inhibition of lipid peroxidation at 200 mg/kg,po qd administration for 4 weeks; type: functional, organism-based
[6] = test system: LX-2; test: Antifibrotic activity in TGF-beta1 induced human LX2 cells assessed as downregulation of alpha-SMA protein expression incubated for 24 hrs by western blotting analysis; type: functional, cell-based
[7] = test system: Mus musculus; test: Hepatoprotective activity in CDAHFD induced C57BL/6N mouse liver injury model assessed as decrease in LDL level at 200 mg/kg,po qd administration for 4 weeks; type: functional, organism-based
[8] = test system: Mus musculus; test: Hepatoprotective activity in CDAHFD induced C57BL/6N mouse liver injury model assessed as decrease in total cholesterol level at 200 mg/kg,po qd administration for 4 weeks; type: functional, organism-based
[9] = Half life in Sprague-Dawley rat liver microsomes at 1 micromol/L measured upto 60 mins in presence of NADPH by LC-MS/MS analysis; type: ADME, Microsome; details: dose 1 µmol/L
[10] = test system: Mus musculus; test: Antifibrotic activity in CDAHFD induced non-alcoholic steatohepatitis C57BL/6N mouse model assessed as downregulation of TGF-beta1 protein expression at 200 mg/kg,po qd administration for 4 weeks by Western blotting analysis; type: functional, organism-based
[11] = Metabolic stability in Sprague-Dawley rat liver microsomes assessed as intrinsic clearance at 1 micromol/L measured upto 60 mins in presence of NADPH by LC-MS/MS analysis; type: ADME, Microsome; details: 1 h, 1 µM, dose 1 µmol/L
[12] = test system: Mus musculus; test: Antifibrotic activity in CDAHFD induced non-alcoholic steatohepatitis C57BL/6N mouse model assessed as downregulation of COL1A1 mRNA expression at 200 mg/kg,po qd administration for 4 weeks by qRT-PCR analysis; type: functional, organism-based
[13] = test system: Rattus norvegicus; test: Antifibrotic activity in bile duct ligation induced Sprague-Dawley rat liver fibrosis model assessed as downregulation of COL1A1 mRNA expression at 200 mg/kg,po qd administration for 14 days by qRT-PCR analysis; type: functional, organism-based; details: time 14.0 day
[14] = test system: THP-1; test: Anti-inflammatory activity in PMA differentiated human THP-1 cells assessed as downregulation of IL-1beta protein expression at 10 micromol/L incubated for 4 hrs followed by LPS and Nigericin addition for 3.5 hrs by Western blotting analysis; type: functional, cell-based; details: dose 10.0 µmol/L, time 7.5 hrs
[15] = test system: Mus musculus; test: Antifibrotic activity in CDAHFD induced non-alcoholic steatohepatitis C57BL/6N mouse model assessed as downregulation of TIMP1 mRNA expression at 200 mg/kg,po qd administration for 4 weeks by qRT-PCR analysis; type: functional, organism-based
[16] = test system: THP-1; test: Anti-inflammatory activity in PMA differentiated human THP-1 cells assessed as downregulation of IL-1beta protein expression at 5 micromol/L incubated for 4 hrs followed by LPS and Nigericin addition for 3.5 hrs by Western blotting analysis; type: functional, cell-based; details: dose 5.0 µmol/L, time 7.5 hrs
[17] = test system: LX-2; test: Antifibrotic activity in TGF-beta1 induced human LX2 cells assessed as downregulation of TIMP1 mRNA expression incubated for 24 hrs by qRT-PCR analysis; type: functional, cell-based
[18] = Metabolic stability in human liver microsomes assessed as compound remaining at 1 micromol/L measured upto 60 mins in presence of NADPH by LC-MS/MS analysis; type: ADME, Microsome; details: dose 1 µmol/L, read-out: Stability
[19] = Metabolic stability in CD-1 mouse liver microsomes assessed as intrinsic clearance at 1 micromol/L measured upto 60 mins in presence of NADPH by LC-MS/MS analysis; type: ADME, Microsome; details: 1 h, 1 µM, dose 1 µmol/L
[20] = Metabolic stability in Sprague-Dawley rat liver microsomes assessed as compound remaining at 1 micromol/L measured upto 60 mins in presence of NADPH by LC-MS/MS analysis; type: ADME, Microsome; details: dose 1 µmol/L, read-out: Stability
[21] = test system: Mus musculus; test: Antifibrotic activity in CDAHFD induced non-alcoholic steatohepatitis C57BL/6N mouse model assessed as decrease in collagen area at 200 mg/kg,po qd administration for 4 weeks by Masson's trichrome staining based analysis; type: functional, organism-based
[22] = Metabolic stability in CD-1 mouse liver microsomes assessed as compound remaining at 1 micromol/L measured upto 60 mins in presence of NADPH by LC-MS/MS analysis; type: ADME, Microsome; details: 1 h, 1 µM, dose 1 µmol/L
[23] = test system: LX-2; test: Antifibrotic activity in TGF-beta1 induced human LX2 cells assessed as downregulation of alpha-SMA mRNA expression incubated for 24 hrs by qRT-PCR analysis; type: functional, cell-based
[24] = test system: Rattus norvegicus; test: Antifibrotic activity in bile duct ligation induced Sprague-Dawley rat liver fibrosis model assessed as upregulation of FXR protein expression at 200 mg/kg,po qd administration for 14 days by Western blotting analysis; type: functional, organism-based; details: time 14.0 day
[25] = test system: Mus musculus; test: Hepatoprotective activity in CDAHFD induced C57BL/6N mouse liver injury model assessed as increase in HDL level at 200 mg/kg,po qd administration for 4 weeks; type: functional, organism-based
[26] = Metabolic stability in CD-1 mouse liver microsomes assessed as microsomal intrinsic clearance at 1 micromol/L measured upto 60 mins in presence of NADPH by LC-MS/MS analysis; type: ADME, Microsome; details: dose 1 µmol/L, read-out: CLH
[27] = test system: Mus musculus; test: Antifibrotic activity in CDAHFD induced non-alcoholic steatohepatitis C57BL/6N mouse model assessed as downregulation of COL1A1 protein expression at 200 mg/kg,po qd administration for 4 weeks by Western blotting analysis; type: functional, organism-based
[28] = test system: Mus musculus; test: Hepatoprotective activity in CDAHFD induced C57BL/6N mouse liver injury model assessed as increase in glucose level at 200 mg/kg,po qd administration for 4 weeks; type: functional, organism-based
[29] = test system: Mus musculus; test: Anti-inflammatory activity in CDAHFD induced C57BL/6N mouse liver injury model assessed as downregulation of IL-1beta mRNA expression in liver at 200 mg/kg,po qd administration for 4 weeks by qRT-PCR analysis; type: functional, organism-based
[30] = test system: Mus musculus; test: Hepatoprotective activity in CDAHFD induced C57BL/6N mouse liver injury model assessed as reduction in hepatic steatosis at 200 mg/kg,po qd administration for 4 weeks by hematoxylin and eosin staining based assay; type: functional, organism-based
[31] = test system: Rattus norvegicus; test: Hepatoprotective activity in bile duct ligation induced Sprague-Dawley rat liver injury model assessed as decrease in total bilirubin level at 200 mg/kg,po qd administration for 14 days; type: functional, organism-based; details: time 14.0 day
[32] = test system: Mus musculus; test: Anti-inflammatory activity in CDAHFD induced C57BL/6N mouse liver injury model assessed as downregulation of IL-6 mRNA expression in liver at 200 mg/kg,po qd administration for 4 weeks by qRT-PCR analysis; type: functional, organism-based

SMILES: COc1cc2c(cc1OC)-c1cc3ccc(OC)c(OCc4cccc(C)c4)c3c[n+]1CC2.[Br-]
- Activity [1]: Active
- Activity [2]: Active
- inhibition [3]: 72.4%
- t1/2 [4]: 7.4 min
- Activity [5]: Active
- Activity [6]: Dose-Dependent Effect
- Activity [7]: Active
- Activity [8]: inactive
- half-life at 1 µM [9]: 7.4 min
- Activity [10]: Active
- CLint,scaled [11]: 338 mL/min/kg
- Activity [12]: Active
- Activity [13]: Active
- Activity [14]: Active
- Activity [15]: Active
- Activity [16]: Active
- Activity [17]: Dose-Dependent Effect
- remaining at 1 h, 1 µM [18]: 44.1%
- CLint,scaled [19]: 744 mL/min/kg
- remaining at 1 h, 1 µM [20]: 0.4%
- Activity [21]: Active
- Stability [22]: 39%
- Activity [23]: Dose-Dependent Effect
- Activity [24]: Active
- Activity [25]: Active
- microsomal CLint at 1 µM [26]: 188 µL/min/mg
- Activity [27]: Active
- Activity [28]: Active
- Activity [29]: Active
- Activity [30]: Active
- Activity [31]: Active
- Activity [32]: Active
